Measurements taken from patent US9421204B2, “Oligomer modified diaromatic substituted compounds” (priority 2010, dated 2016).
Several values for one entry are separate records, joined by “and”; a condition that tells them apart may be missing. Equal values may be shown once. Read-outs that look alike come from different tables or passages of the source.

Assays:
[1] = Caco-2 permeability characterization (plate certification); details: human; for Papp A→B: Caco-2, (A-to-B) Papp; for Papp B→A: Caco-2, (B-to-A) Papp; for efflux ratio: Caco-2, Efflux Ratio
Method: The objective of this study was to determine the bidirectional Caco-2 permeability of test compounds. Caco-2 monolayers were grown to confluence on collagen-coated, microporous, polycarbonate membranes in 12-well Costar Transwell® plates. Details of the plates and their certification are shown below. The permeability assay buffer for the donor chambers was Hanks Balanced Salt Solution containing 10 mM HEPES and 15 mM glucose (HBSSg) at a pH of 7.4. The buffer in the receiver chambers also contained 1% bovine serum albumin (BSA). The dosing solution concentrations were 10 μM in the assay buffer. Cell monolayers were dosed on the apical side (A to-B) or basolateral side (B-to-A) and incubated at 37° C. with 5% CO2 in a humidified incubator. After 2 hours, aliquots were taken from the receiver and donor chambers. Each determination was performed in duplicate. The lucifer yellow flux was also measured for each monolayer to ensure no damage was inflicted to the cell monolayers during the flux period. All samples were assayed by LC/MS/MS using electrospray ionization.

Wild Type RT = Wild Type RT (Human immunodeficiency virus type 1 group M subtype B, UniProt P04585); assay: HIV-1 Reverse Transcriptase Inhibition Assay; format: biochemical; details: Wild Type RT IC50
Method: The following materials were removed from the freezer and were stored on wet ice (dGTP, ^32P, purified enzyme extract, rCdG, dGTP, DNA). Test compounds were evaluated at a high test of 100 μM diluted in dH2O and if the stock solution was turbid, 1:1000 Triton-X was added to the stock solution. Thirty microliters (30 μL) of each dilution was then transferred in duplicate to the appropriate well of a 96-well plate. The positive and negative control wells each received 30 μL of dH2O instead of the compound. A 2× buffer was prepared in the following manner: 125 μL 2M Tris pH 8.0, 250 μL 3M KCl, 80 μL 1 M MgC12, 10 μL 2 M DTT, 40 μL 25 U/mL rCdG, 100 μL 1 mM dGTP, 10 μL 800 Ci/mMol alpha ^32P:dG TP, and 4.4 mL dH2O. Fifty microliters (50 μL) of 2× buffer was added to every well of the plate. BSA was diluted 1:100 and Triton-X 1:1000 in dH2O and the enzyme was added to the mixture at a 1:400 dilution. Twenty microliters (20 μL) of the enzyme solution was added to all of the wells of the plate except the negative control wells. Distilled water was used instead of enzyme in these wells. The plate was incubated at 37° C. for 30 minutes. Following incubation, 10 μL of 10 mg/mL DNA (MB-grade fish sperm) was added to each well, followed by 150 μL of cold 10% TCA in each well. The plate was incubated at room temperature for approximately 15 minutes in order to allow for precipitation of the samples. Following the incubation the contents were transferred to the appropriate filter plate. The plate was placed on the vacuum manifold and pushed firmly to induce suction. Wells were rinsed with 200 μL of cold TCA. Again, the plate was pushed down firmly and vacuum suction was applied. Once all of the liquid was aspirated from the filter plate, it was removed from the manifold and residual liquid was blotted from the bottom of the plastic base. The filtered wells were separated from the plastic base and the wells were blotted on clean, absorbent paper. The filtered wells were pushed into the cassette and a sheet of Millipore multiscreen tape was placed on the bottom of a Wallace Microbeta cassette covering all of the holes. Twenty microliters (20 μL) of Wallace Supermix Scintillant was added to each well and the top of the wells were covered with a sheet of the multiscreen tape. The plate was read on the Wallace MicroBeta counter to measure incorporated ^32P.

HIV-1RF = assay: Anti-HIV-1 cytoprotection assay in CEM-SS cells; format: cell-based
Method: Cell Preparation—CEM-SS cells were passaged in T-75 flasks prior to use in the antiviral assay. On the day preceding the assay, the cells were split 1:2 to assure they were in an exponential growth phase at the time of infection. Total cell and viability quantification was performed using a hemocytometer and Trypan Blue dye exclusion. […] The cells were resuspended at 5×10^4 cells per ml in tissue culture medium and added to the drug containing microtiter plates in a volume of 50 μL.
Virus Preparation—The virus used for the assay was the lymphocyte-tropic virus strain HIV-IRF. The virus was obtained from the NIH AIDS Research and Reference Reagent Program and stock virus pools were produced in CEM-SS cells. A pretitred aliquot of virus was removed from the freezer (−80° C.) and allowed to thaw slowly to room temperature in a biological safety cabinet.
(§1) Plate Format—Each plate contains cell control wells (cells only), virus control wells (cells plus virus), drug toxicity wells (cells plus drug only), drug colorimetric control wells (drug only) as well as experimental wells (drug plus cells plus virus). Samples were tested in triplicate with eleven half-log dilutions per compound.
(§2) Efficacy and Toxicity XTT—Following incubation at 37° C. in a 5% CO2 incubator, the test plates were stained with the tetrazolium dye XTT (2,3-bis(2-methoxy-4-nitro-5-sulfophenyl)-5-[(phenylamino)carbonyl]-2H-tetrazolium hydroxide). XTT-tetrazolium is metabolized by the mitochondrial enzymes of metabolically active cells to a soluble formazan product, allowing rapid quantitative analysis of the inhibition of HIV induced cell killing by anti-HIV test substances. XTT solution was prepared daily as a stock of 1 mg/mL in RPMI1640. Phenazine methosulfate (PMS) solution was prepared at 0.15 mg/mL in PBS and stored in the dark at −20° C. XTT/PMS stock was prepared immediately before use by adding 40 μL of PMS per ml of XTT solution. Fifty microliters of XTT/PMS was added to each well of the plate and the plate was re-incubated for 4 hours at 37° C. Plates were sealed with adhesive plate sealers and shaken gently or inverted several times to mix the soluble fosmazan product and the plate was read spectrophotometrically at 450/650 nm with a Molecular Devices Vmax plate reader.
Anti-HIV-1 Cytopathic Effects Inhibition Assay Evaluations: Eight compounds were evaluated against the RF strain of HIV-1 in CEM-SS cells using a 12 concentration dose response curve.
(§3) Data Analysis—Raw data was collected from the Softmax Pro 4.6 software and imported into a Excel XLFit4 spreadsheet for analysis by four parameter curve fit calculations. Both antiviral activity and toxicity are calculated.

[2] = Toxicity XTT in CEM-SS cells (cytoprotection assay); format: cell-based; details: human, CEM-SS cells, XTT; read-out: CEM-SS TC50
Method: Cell Preparation—CEM-SS cells were passaged in T-75 flasks prior to use in the antiviral assay. On the day preceding the assay, the cells were split 1:2 to assure they were in an exponential growth phase at the time of infection. Total cell and viability quantification was performed using a hemocytometer and Trypan Blue dye exclusion. Cell viability was greater than 95% for the cells to be utilized in the assay. The cells were resuspended at 5×10^4 cells per ml in tissue culture medium and added to the drug containing microtiter plates in a volume of 50 μL.
as §1, §2, §3

in vitro = in vitro ADME; details: human
Method: Each determination was performed in duplicate.
Vr is the volume of the receiver compartment in cm^3.
Vd is the volume of the donor compartment in cm^3.
A is the area of the cell monolayer (1.13 cm^2 for 12-well Transwell®).
CN is the nominal dosing concentration of the dosing solution in μM.
CA is the average of the nominal dosing concentration and the measured 120 minute donor concentration in μM.
Cr^final is the receiver concentration in μM at the end of the incubation period.
Cd^final is the concentration of the donor in μM at the end of the incubation period.

NL4-3L100I = assay: Anti-HIV cytoprotection assay, drug resistant NL4-3 L100I; format: cell-based; details: Human immunodeficiency virus 1, CEM-SS, HIV-1 strain NL4-3L100I, CEM-SS cells
Method: (§4) Cells were prepared as described above. Virus Preparation—The wild type NL4-3 and drug resistant A17 viruses were obtained from the NIH AIDS Research and Reference Reagent Program and stock virus pools were produced in CEM-SS cells. Amino acid substitutes of L100I, Y181C and P23L were introduced by site-directed mutagenesis into pN L4-3 and stock virus pools were produced in CEM-SS cells. A pretitered aliquot of virus was removed from the freezer (−80° C.) and allowed to thaw slowly to room temperature in a biological safety cabinet. Virus was re-suspended and diluted into tissue culture medium such that the amount of virus added to each well in a volume of 50 μL was the amount determined to yield 85 to 95% cell killing at 6 days post-infection.
as §2, with “Plate Format—Each plate contains cell control wells (cells only), virus control wells (cells plus virus), drug toxicity wells (cells plus drug only), drug colorimetric control wells (drug only) as well as experimental wells (drug plus cells plus virus). Samples were tested in triplicate with eleven half-log dilutions per compound. Efficacy” for “Efficacy”, “XTT-tetrazolium was” for “XTT-tetrazolium is”, “C. XTTIPMS” for “C. XTT/PMS”, “soluble formazan” for “soluble fosmazan”
as §3

NL4-3Y181C = assay: Anti-HIV cytoprotection assay, drug resistant NL4-3 Y181C; format: cell-based; details: HIV-1 strain NL4-3Y181C; for EC50: CEM-SS cells
Method: as §4
as §2, with “Plate Format—Each plate contains cell control wells (cells only), virus control wells (cells plus virus), drug toxicity wells (cells plus drug only), drug colorimetric control wells (drug only) as well as experimental wells (drug plus cells plus virus). Samples were tested in triplicate with eleven half-log dilutions per compound. Efficacy” for “Efficacy”, “XTT-tetrazolium was” for “XTT-tetrazolium is”, “C. XTTIPMS” for “C. XTT/PMS”, “soluble formazan” for “soluble fosmazan”
as §3

NL4-3P236L = assay: Anti-HIV cytoprotection assay, drug resistant NL4-3 P236L; format: cell-based; details: HIV-1 strain NL4-3P236L; for EC50: CEM-SS cells
Method: as §4
as §2, with “Plate Format—Each plate contains cell control wells (cells only), virus control wells (cells plus virus), drug toxicity wells (cells plus drug only), drug colorimetric control wells (drug only) as well as experimental wells (drug plus cells plus virus). Samples were tested in triplicate with eleven half-log dilutions per compound. Efficacy” for “Efficacy”, “XTT-tetrazolium was” for “XTT-tetrazolium is”, “C. XTTIPMS” for “C. XTT/PMS”, “soluble formazan” for “soluble fosmazan”
as §3

A17K103N/Y181C = assay: Anti-HIV cytoprotection assay, drug resistant A17; format: cell-based; details: Human immunodeficiency virus 1, CEM-SS, HIV-1 strain A17K103N/Y181C, CEM-SS cells
Method: as §4, with “cabinet.” for “cabinet. Virus was re-suspended and diluted into tissue culture medium such that the amount of virus added to each well in a volume of 50 μL was the amount determined to yield 85 to 95% cell killing at 6 days post-infection.”
as §2, with “Plate Format—Each plate contains cell control wells (cells only), virus control wells (cells plus virus), drug toxicity wells (cells plus drug only), drug colorimetric control wells (drug only) as well as experimental wells (drug plus cells plus virus). Samples were tested in triplicate with eleven half-log dilutions per compound. Efficacy” for “Efficacy”, “XTT-tetrazolium was” for “XTT-tetrazolium is”, “C. XTTIPMS” for “C. XTT/PMS”, “soluble formazan” for “soluble fosmazan”
as §3

[3] = Toxicity XTT in CEM-SS cells (drug resistant strain assay); format: cell-based; details: human, CEM-SS cells, read-out: TC50 (the source's name)
Method: as §4
as §2, with “Plate Format—Each plate contains cell control wells (cells only), virus control wells (cells plus virus), drug toxicity wells (cells plus drug only), drug colorimetric control wells (drug only) as well as experimental wells (drug plus cells plus virus). Samples were tested in triplicate with eleven half-log dilutions per compound. Efficacy” for “Efficacy”, “XTT-tetrazolium was” for “XTT-tetrazolium is”, “C. XTTIPMS” for “C. XTT/PMS”, “soluble formazan” for “soluble fosmazan”
as §3

[4] = Human immunodeficiency virus 1, CEM-SS

Work on `C[C@H]1O[C@@H](O[C@H]2[C@@H](O)C[C@H](O[C@H]3[C@@H](O)C[C@H](O[C@H]4CC[C@@]5(C)[C@H](CC[C@@H]6[C@@H]5C[C@@H](O)[C@]5(C)[C@@H](C7=CC(=O)OC7)CC[C@]65O)C4)O[C@@H]3C)O[C@@H]2C)C[C@H](O)[C@@H]1O` [Digoxin] yielded a Papp A→B ([1]; Test 1, Passage Number 65) of 0.47 ×10⁻⁶ cm/s, a Papp A→B ([1]; Test 2, Passage Number 59) of 0.65 ×10⁻⁶ cm/s and a Papp A→B ([1]; Test 2, Passage Number 67) of 0.75 ×10⁻⁶ cm/s. For the same molecule, the Papp B→A ([1]; Test 1, Passage Number 65) was 11 ×10⁻⁶ cm/s, the Papp B→A ([1]; Test 2, Passage Number 59) was 16.9 ×10⁻⁶ cm/s and the Papp B→A ([1]; Test 2, Passage Number 67) was 13.4 ×10⁻⁶ cm/s. It also gave an efflux ratio ([1]; Test 1, Passage Number 65) of 23, an efflux ratio ([1]; Test 2, Passage Number 59) of 26 and an efflux ratio ([1]; Test 2, Passage Number 67) of 18.
With `COCCOCCOCCNc1ccc2[nH]c(C(=O)N3CCN(c4ncccc4NC(C)C)CC3)cc2c1` [5-mPEG3-NH-Delavirdine] the IC50 (Wild Type RT) was 1 µM, the “Therapeutic Index” value (HIV-1RF; CEM-SS/HIV-1RF) was 212.67 and the EC50 (HIV-1RF; Human immunodeficiency virus 1, CEM-SS, CEM-SS cells, XTT, read-out: CEM-SS/HIV-1RF EC50) was 0.16 µM. For the same molecule, the CC50 [2] was 34.9 µM, the Papp A→B at 2 hours, 10 μM (in vitro; Caco-2, pH 7.4, Test 2, 10 μM, 2 hours, pH 7.4, read-out: Average Papp, A→B) was 33.3 ×10⁻⁶ cm/s and the Papp B→A at 2 hours, 10 μM (in vitro; Caco-2, pH 7.4, Test 2, 10 μM, 2 hours, pH 7.4, read-out: Average Papp, B→A) was 41.8 ×10⁻⁶ cm/s. For the same molecule, the recovery at 2 h, 10 μM (in vitro; Caco-2, pH 7.4, Test 2, 10 μM, 2 hours, read-out: Recovery (%) A→B) was 94%, the recovery at 2 h, 10 μM (in vitro; Caco-2, pH 7.4, Test 2, 10 μM, 2 hours, read-out: Recovery (%) B→A) was 96% and the efflux ratio at 2 hours, 10 μM (in vitro; Caco-2, pH 7.4, Test 2, read-out: Efflux Ratio (B→A/A→B)) was 1.3.
`CC(C)NCC(O)COc1cccc2ccccc12` (centres unmarked) [Propranolol] gave a Papp ([1]; Caco-2, Papp) of 20.8 ×10⁻⁶ cm/s.
Molecule `Cc1ccnc2c1NC(=O)c1cccnc1N2C1CC1` [Nevirapine, reference compound] has an EC50 (NL4-3L100I) of over 10 µM, a TI (NL4-3Y181C) of over 1.2 and an EC50 (NL4-3Y181C) of 8.59 µM. The EC50 (NL4-3Y181C; [4]) was over 10 µM, the TI (NL4-3P236L) was >33.3 and >35.7 and the EC50 (NL4-3P236L) was 0.28 µM. For the same molecule, the EC50 (NL4-3P236L; [4]) was 0.3 µM, the EC50 (A17K103N/Y181C) was over 10 µM and the CC50 ([3]; run with HIV-1 strain A17K103N/Y181C) was over 10 µM. It also gave a CC50 ([3]; run with HIV-1 strain NL4-3) of over 10 µM, a CC50 ([3]; run with HIV-1 strain NL4-3L100I) of over 10 µM and a CC50 ([3]; run with HIV-1 strain NL4-3P236L) of over 10 µM. It also gave a CC50 ([3]; run with HIV-1 strain NL4-3Y181C) of over 10 µM.
